Data from a melting point compilation (Tetko et al.; mined from patent text by program, amines drawn as free bases though some values may be those of a salt).

Compound | melting point [°C]
CNC(=S)n1nc(NC(C)=O)nc1N | > 300
Cc1ccc(S(=O)(=O)NC(=S)NC23CC4CC(CC(C4)C2)C3)cc1 | 170 to 173
CC[C@@H](COC)n1cc(Cl)nc(N2CCc3cc(Br)cc(Cl)c32)c1=O | 121 to 122
O=C(/C=C/c1ccc(Br)cc1)c1c(F)cccc1F | 71
CCOC(=O)/C(=N\OCCN=[N+]=[N-])c1csc(N)n1 | 123 to 124
CCOC(=O)Cc1c[nH]c2cc(C3CC3)nn2c1=O | 280 to 283
COc1cc2c(cc1-c1cncs1)-c1c(-c3cncs3)c3c(n1CC2)C(=O)N(C(C)(C)C)CCOC3 | 254 to 255
CNC(Cc1ccc(Cl)cc1[N+](=O)[O-])c1ccsc1C (centres undefined) | 44 to 46
CC(C)(C)OC(=O)N1C=CN(CC#N)C(=O)[C@@H]1Cc1ccccc1 | 160 to 162
CC(C)C(c1ccccc1O)N1CCOCC1 (centres undefined) | 73 to 77
COC12CC(C)(C)C(O1)C(OC(=O)c1ccc(N)cc1)C=C2C (centres undefined) | 118 to 119
Cc1cccc(CNc2nc(NC[C@@H](C)O)nc3c2ncn3C(C)C)c1O | 145 to 147
Cc1nc[nH]c1CSCCNc1cc[nH]c(=O)n1 | 249 to 251
Cc1cc(C)cc(C(N)=O)c1 | 148 to 149
CC(CCC(O)C(C)(C)O)C1CCC2C3=CC=C4CC(O)CCC4(C)C3CCC21C (centres undefined) | 216 to 218
O=C(Nc1nccs1)C1C(=O)Sc2cc(Cl)ccc21 (centres undefined) | 276 to 289
CNC(=O)N(N)c1nnc(C(C)(C)C)s1 | 141 to 142
CC(C)c1nc(CO)n(CC2=CCC(=O)N=C2)c1Sc1cc(Cl)cc(Cl)c1 | 220
COc1cc2ncnc(N3CCC(CI)CC3)c2cc1OC | 180 to 182
CNC(=O)[C@H](Cc1ccc(OC)cc1)NC(=O)[C@@H](N)CC(C)C | 128 to 132
COc1c(N2CC(C)[C@@](N)(CF)C2)c(F)cc2c(=O)c(C(=O)O)cn([C@@H]3C[C@@H]3F)c12 (some centres undefined) | 167 to 169
O=C(CSCc1ccc2c(c1)OCO2)NO | 127 to 128

Compound | melting point [°C]
C=CCOc1ccc(C(=O)c2ccc(Cl)c(S(=O)(=O)N=CN(C)C)c2)c(Cl)c1Cl | 141 to 142
CC1CN(c2ccc(C(=O)C(F)(F)F)cc2)N=C1NC(=O)C(F)(F)F (centres undefined) | 203 to 204
CC(=O)NCCCCC(NC(C)=O)C(C)=O (centres undefined) | 111 to 113
O=C(O)c1cn(C2CC2)c2c(F)c(N3CCOC(CN4CCNCC4)C3)c(F)cc2c1=O (centres undefined) | 260
COc1ccc(-n2c(CF)nc3ccc([N+](=O)[O-])cc3c2=O)c(C)c1 | 190 to 192
O=C(CCCCCn1ccnn1)NC[C@@H]1CN2C(=O)C[C@H]2O1 (racemic) | 108 to 109
C=CCNc1nc(NCC)nc2ccc([N+](=O)[O-])cc12 | 227 to 228
COc1cccc(OC)c1C(=O)Nc1cc(C(C)(C)C)ns1 | 266 to 267
COc1ccc(CN2CCC(c3cn(Cc4ccoc4)c4cc(F)ccc34)CC2)cc1C(=O)O | 228 to 229
NC(CC(=O)O)c1ccc(OC(F)(F)F)cc1 (centres undefined) | 258 to 260
NCc1ccccc1CN | > 250
O=S(=O)(c1cnn(-c2c(Cl)cc(C(F)(F)F)cc2Cl)c1-n1cccn1)C(F)(F)F | 127 to 133
COCCOC[C@H](CC1(C(=O)O)CCCC1)C(=O)OC(C)(C)C | 86 to 87
O=[N+]([O-])c1cn2c(n1)OC[C@@H](OCc1ccc(Cl)nn1)C2 | 180 to 184
CN(C)C1(C#N)CCC(c2ccccc2)(N(C)C)CC1 (centres undefined) | 82 to 92
O=C1CCOc2cc(S)ccc21 | 144 to 145
O=C1COCCN1c1ccc(N2C[C@@H](CCl)OC2=O)cc1 | 143 to 146
OC(CN1CCNC1=S)c1ccc(F)cc1 (centres undefined) | 130
CCOC(=O)C1=C(C)NC(=S)N(C(=O)OCC)C1c1ccc([N+](=O)[O-])cc1 (centres undefined) | 163 to 165
C=C(CC)C(=O)c1ccc(OC(C)(C)C(=O)O)c(Cl)c1Cl | 88 to 89
CC(=O)NCC1CN=C(c2ccccc2)c2cc(Cl)ccc2N1 (centres undefined) | 240 to 245

Next, values leading:

melting point [°C] | Compound
101 to 104 | COC(=O)c1ccc2c(CCCNc3ccccn3)nn(C)c2c1
186 | NNC(=O)N(O)C1c2ccccc2Oc2ccccc21
125 | CC(C)(C)OC(=O)N1CC=C(c2ccnc(C(=O)N(O)Cc3ccccc3)c2)CC1
154 to 156 | CS(=O)c1ccccc1-c1nc2ncccc2o1 (centres undefined)
128 to 130 | O=C(O)Cc1cccc(OCc2ccc3ccccc3n2)c1
58 | CCCCCCCCCCCCCCNCc1ccc(OCc2cccc(F)c2)cc1
262 to 263 | O=C(c1cc(Cl)cc(Cl)c1)N1CCc2cc(S(=O)(=O)N3CCN(c4cccc(Cl)c4)CC3)ccc21
122 to 123 | CN(C)CCNC(=O)c1cccc(-c2ccc3c(c2)N(Cc2ccc(Cl)cc2Cl)CC3)c1
163 to 164 | O=c1c2ccccc2sc2ccc(S(=O)(=O)C(F)(F)F)cc12
93 to 98 | CC(C)CC(NC(=O)C(Cc1c[nH]cn1)NC(=O)C(Cc1cccc2ccccc12)Cc1cccc2ccccc12)C(O)C(=O)OC(C)C (centres undefined)
146 to 147 | Cc1cc(C2N(c3ccccc3)CCN2c2ccccc2)cc(Cl)c1O
176 to 178 | CCN(CC)CCC(=O)NC1(c2ccccc2Cl)C(=O)Nc2ccc(Cl)cc21 (centres undefined)
158 to 160 | Cc1ccccc1Oc1cccc(CC(=O)O)c1[N+](=O)[O-]
105 to 107 | CC(C)C(=O)C(C)(C)C1(O)C(=O)N(Cc2ccc(Cl)cc2)c2ccccc21 (centres undefined)
145 to 147 | O=C(O)Cc1ccc(-c2ccc(F)cc2F)c(F)c1
222 to 224 | COc1ccc(-c2oc3cc(NS(C)(=O)=O)c(Oc4ccccc4)cc3c(=O)c2O)cc1OC
204 | COC(=O)C1=C(C)NN=C(c2cccc(Cl)c2)C1c1cccc(Cl)c1 (centres undefined)
198 to 200 | CC(=O)NCC1CN(c2ccc(-n3cccc3)c(F)c2)C(=O)O1 (centres undefined)
164 to 165 | CCC(CC)n1cc(Cl)nc(N2CCc3cc(OC)cc(C)c32)c1=O

melting point [°C] | Compound
36.5 to 37 | CCOC(=O)C(S)C(=S)Cc1ccc(Cl)cc1 (centres undefined)
175 to 177 | CN1CCN(c2ccc(S(=O)(=O)Oc3cccc(F)c3)cc2)C1=O
58 to 59 | CCCC[C@@H]1CCc2ccc(OCc3ccc4ccccc4n3)cc2[C@H]1O
192 to 193 | CN1c2ccccc2C(=O)c2ccccc2C12OCCO2
265 to 269 | CCOC(=O)c1ccc(NC(=O)CCn2cnc3c(=O)[nH]cnc32)cc1
153 to 154 | CCN(CC)CCOC(=O)c1cnc2ccn(-c3cccc(Cl)c3)n2c1=O
110 to 111 | CN1CCC(c2nn(-c3ccccc3C(F)(F)F)c3ccccc23)CC1
145 to 146 | CCC(O)(c1cccc(O)c1)c1nccs1 (centres undefined)
55 to 58 | C=CCCc1cc(C2(c3ccc(OC(F)F)cc3)N=C(N)N(C)C2=O)ccc1F (centres undefined)
150 | CCOCc1nc(C(C)(C)O)c(C(=O)O)n1Cc1ccc(-c2ccccc2-c2nnn[nH]2)cc1
117 to 119 | COc1ccc(-c2nnc3c4ccccc4c(CNCCCC#N)nn23)cc1
180 to 182 | O=C(O)COc1ccc2c(-c3ccccc3F)noc2c1Br
117 to 118 | COc1ccc2c(c1)N(CCCN1CCC(CCO)CC1)c1cccc(S(C)(=O)=O)c1S2
< 20 | CC(=O)N1CCC(Cl)c2nc3ccccc3c(C)c2C1 (centres undefined)
192 | Cc1ccccc1Sc1ccc2c(c1)CC[C@H]1NC(=O)CC[C@]21C
213 to 215 | O=C1c2cc3ccc4c(c3c(-c3ccc5c(c3)OCO5)c2CN1CCCO)OCO4
214 to 216 | CCn1c(Cn2ccnc2-c2cc(F)ccc2F)nc2ncccc21
193 to 196 | CC(c1oc2ccc(F)cc2c(=O)c1-c1cccc(F)c1)n1nc(-c2cccc(O)c2)c2c(N)ncnc21 (centres undefined)
147 to 148 | OCc1cn(Cc2ccc(OCc3csc(-c4ccccc4)n3)cc2)nc1-c1cccs1

melting point [°C] | Compound
115 to 116 | CCCCCCCOc1ccc(CCC(CO)(CCC)NC(=O)c2cc([N+](=O)[O-])cc([N+](=O)[O-])c2)cc1 (single isomer, unassigned; (-))
141 to 144 | OC1CSC(Oc2ccc(-c3ccc(F)nc3)nc2F)C(O)C1O (centres undefined)
251 to 252 | O=C(N[C@H](Cc1ccc(C(F)(F)F)cc1)[C@@H](O)c1ccc(F)cc1)c1c2ccccc2cc2ccccc12 (racemic)
102 to 104 | CCSC1C(=O)N=C(NC(=O)Nc2cccc(Cl)c2)N1C (centres undefined)
232 to 234 | CN(Cc1ccc(NC(=O)C2=Cc3cc(-c4ccc(O)cc4)ccc3S(=O)(=O)CC2)cc1)C1CCOCC1
174 to 175 | CNC(=O)c1cccc(NC(=O)Cc2ccc3c(c2)OCO3)c1
70 | Cn1nc(C(F)(F)F)nc1NCCCCOc1cccc(CN2CCCCC2)c1
229 to 230 | CCOCc1nc2c(N)nc3ccccc3c2n1CCCCS(=O)(=O)Nc1ccc(OC)cc1
83 to 85 | O=C(O)Cc1ccc(OCCCN2CCC(c3cn(CC4CC4)c4ccccc34)CC2)cc1
148 to 150 | Fc1cccc(F)c1C1=NC(c2ccc(OCc3ccc4ccccc4c3)cc2)CO1 (centres undefined)
92 to 96 | CCCCn1nc(C)c(C(=O)O)c1Cc1ccc(-c2ccccc2S(=O)(=O)NC(=O)OC(C)(C)C)cc1
149 to 151 | Cc1ccc(S(=O)(=O)n2ccnc2C(O)(c2ccc(F)cc2)c2ccc(F)cc2)cc1
222 | Fc1ccccc1C1=CCc2nnc(Br)n2-c2ccc(Cl)cc21
99 to 101 | Cc1nc(NC(=O)c2cccc3ccccc23)sc1C(=O)NCc1ccccc1
148 to 149 | CCN1C(=O)c2cccnc2Sc2ccccc21
123 to 127 | COc1cccc(S(=O)(=O)c2ccc3c(c2)c(CCN(C)C(=O)OC(C)(C)C)c(C)n3C)c1
176 to 177 | COCCO[C@@H]1c2ccn3c(C)c(C)nc3c2N[C@H](c2ccccc2)[C@H]1OC(=O)OC
102 to 104 | N#Cc1ccc(C(F)(F)F)cc1Sc1ccccc1N
